Where two headings read alike, the source gives them in different places.
Tested on: OCI-Ly10
Experiment: Inhibition of growth of OCI-Ly10 (ABC-DLBCL cells)
Assay type: cell-based
Settings: Homo sapiens
Source text: DLBCL cells of the ABC subtype, such as OCI-Ly10, have chronic active BCR signaling and are very sensitive to the Btk inhibitor described herein. […] In addition, induction of apoptosis, as shown by capsase activation, Annexin-V flow cytometry and increase in sub-GO fraction is observed in OCILy 10. Both sensitive and resistant cells express Btk at similar levels, and the active site of Btk is fully occupied by the inhibitor in both as shown using a fluorescently labeled affinity probe. […] The activity of Btk inhibitors in the cell lines studied herein are also characterized by comparing signal transduction profiles (Btk, PLCγ, ERK, NF-kB, AKT), cytokine secretion profiles and mRNA expression profiles, both with and without BCR stimulation, and observed significant differences in these profiles that lead to clinical biomarkers that identify the most sensitive patient populations to Btk inhibitor treatment. See U.S. Pat. No. 7,711,492 and Staudt et al., Nature, Vol. 463, Jan. 7, 2010, pp. 88-92, the contents of which are incorporated by reference in their entirety.

C=CC(=O)N1CCC[C@@H](n2nc(-c3ccc(Oc4ccccc4)cc3)c3c(N)ncnc32)C1 [Compound 1, 1-((R)-3-(4-amino-3-(4-phenoxyphenyl)-1H-pyrazolo[3,4-d]pyrimidin-1-yl)piperidin-1-yl)prop-2-en-1-one]
EC50 (read-out: EC50 1 hour pulse, growth of OCI-Ly10, 1 hour pulse): 50 nM
EC50 (growth of OCI-Ly10, continuous exposure, read-out: EC50 continuous exposure): 10 nM

Reference: patent US10010507B1, “Pharmaceutical formulations of a bruton's tyrosine kinase inhibitor” (Pharmacyclics LLC, priority 2015, dated 2018)
